Several values for one entry are separate records, joined by “and”; a condition that tells them apart may be missing. Identical values can stand only once.
Target: T1, TbERK8 (Trypanosoma brucei brucei, UniProt Q38B88)
T1 sequence (Q38B88 1-442): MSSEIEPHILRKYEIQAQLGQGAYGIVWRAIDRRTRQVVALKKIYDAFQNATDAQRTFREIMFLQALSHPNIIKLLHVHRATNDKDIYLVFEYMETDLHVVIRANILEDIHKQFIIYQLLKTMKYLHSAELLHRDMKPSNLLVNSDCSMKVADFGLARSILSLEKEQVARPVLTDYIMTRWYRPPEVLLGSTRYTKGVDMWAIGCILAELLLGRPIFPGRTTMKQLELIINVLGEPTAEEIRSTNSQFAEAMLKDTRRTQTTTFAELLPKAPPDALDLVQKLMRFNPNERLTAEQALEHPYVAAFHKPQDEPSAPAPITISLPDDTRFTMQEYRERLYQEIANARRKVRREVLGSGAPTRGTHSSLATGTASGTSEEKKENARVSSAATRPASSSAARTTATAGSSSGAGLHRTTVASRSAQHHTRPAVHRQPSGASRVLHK
Assay: Luciferase-based kinase inhibition assay (ATP luminescence), GST-tagged TbERK8 with MBP substrate
Assay type: biochemical
Design: raw luminescence, TbERK8: unit of the concentration uncertain
Conditions: for raw luminescence, TbERK8: replicate wells; for Luminescence Raw (Kinase-Glo): TbERK8
Description: Escherichia coli strain Rosetta 2 (DE3) (Cat# 71397, MilliporeSigma, Burlington, MA) was transformed with the plasmid pGEX2T expressing the full-length hERK8 coding region or pGSTAg expressing the full-length TbERK8 coding region. One liter of Terrific Broth media containing 100 μg/ml Ampicillin and 30 μg/ml chloramphenicol in 2 L baffled flasks was inoculated with 25 mL from an overnight culture of Rosetta 2 strains harboring either the pGEX2T-hERK8 or pGSTAg-TbERK8 plasmid. Two baffled flasks were inoculated with each overnight strain and incubated and shaken at 175 RPM in a New Brunswick Innova 44R Incubator Shaker (Fischer Scientific, Pittsburgh, PA) at 37 °C until the cultures reached an O.D.600 of 0.94. Once the cultures in the flask reached the target O.D.600, the flasks were cooled to 4 °C in an ice water bath. The cooled cultures were induced by adding isopropyl β-D-1-thiogalactopyranoside (IPTG) to a final concentration of 0.1 mM and shaken at 16 °C for 16 hours at 175 RPM in a New Brunswick Innova 44R Incubator Shaker (Fischer Scientific, Pittsburgh, PA). On the next day, the cultures were pelleted by centrifugation at 9000 xg in a JLA 10.500 rotor (Beckman Coulter; Brea, CA), and the media was decanted. The pellet was flash-frozen in liquid nitrogen and then thawed on ice. The thawed pellet was resuspended in lysis buffer (25 mM Tris, 75 mM NaCl, 0.5% TritonX-100 and 0.5% Nonidet P-40, 1 mM phenylmethanesulfonyl fluoride, 1 mM benzamidine⋅HCl) and lysed using a microfluidizer M-110P from Microfluidics (Westwood, MA). The crude lysates were clarified by centrifugation at 140,000 xg in a 45Ti rotor (Beckman Coulter, Brea, CA) for 30 min at 4°C. The clarified lysate was loaded by gravity to a 3 mL glutathione agarose resin column (Cat# G-250–10, GOLDBIO, St. Louis, MO) formed in a 1.5 × 20 cm glass chromatography column (Cat# 7371522, Bio-Rad, Hercules, CA). The column was washed with 30 mL of PBS (pH 7.4) containing 1 mM DTT. Elution buffer (50 mM Tris buffer pH 8.0 containing 10 mM reduced glutathione and 1 mM DTT was added to the washed column), and 1 mL fractions were collected by gravity and examined by SDS-PAGE stained by Coomassie dye. Peak fractions pooled from the elution were dialyzed (4x 1:500 dilutions) in kinase buffer (30 mM Tris, pH 7.4, 10 mM MgCl2, 1 mM DTT, 5% glycerol).
We performed kinase assays in buffer K (30 mM Tris pH 7.4, 10 mM MgCl2, 1 mM DTT, 5% glycerol, 50 μM ATP, and 0.1 mg/mL BSA) at 30°C for 30 min in 30 μL reactions. GST-tagged HsERK8 and TbERK8 were tested using myelin basic protein (MBP) (Cat# 13–110, Millipore, Darmstadt, Germany) as the substrate at increasing concentrations to determine the optimal activity for the assay. ATP consumption was determined by adding equal volumes of the kinase assay reagent (Promega, Cat# V5601, Madison, WI) following the manufacturer’s protocol. Luminescence was measured using the microplate reader (SpectraMax L, Molecular Devices, Sunnyvale, CA).
These compounds were screened for kinase inhibition utilizing a luciferase-based assay. Briefly, the kinases were tested using MBP as the substrate at a 14-fold molar excess in 384-well flat-bottom white plates (BRANDTECH Scientific, Cat# 781681, Essex, CT). These compounds were tested at concentrations ranging from […] to 150 nM. The kinases plus MBP substrate reactions were incubated with each inhibitor for 30 minutes at 30°C. Equal volumes of kinase assay mix Promega (Cat# V5601, Madison, WI) were added to the kinase/inhibitor reaction after 30 minutes, following the manufacturer’s protocol. ATP luminescence was measured using a microplate reader (SpectraMax L, Molecular Devices, Sunnyvale, CA). IC50 values were calculated from assays done in triplicate by fitting the data using Prism 8.1.1 (GraphPad).

## C[C@]12C=CC(=O)C=C1CC[C@@H]1[C@@H]2[C@@H](O)C[C@@]2(C)[C@H]1CC[C@]2(O)C(=O)CO [Prednisolone]
  IC50: > 10 mM
0.00015 (unit uncertain) compound, sheet ADP_ATP_glo081724 (3)
  raw luminescence, TbERK8: 151.546 RLU and 115.356 RLU and 183.213 RLU
0.00015 (unit uncertain) compound, sheet Kinase_glo 08142024 (2)
  raw luminescence, TbERK8: 851.739 RLU and 832.717 RLU and 648.843 RLU
0.00015 (unit uncertain) compound, sheet Kinase_glo_080924_IFPS (2)
  raw luminescence, TbERK8: 2863.49 RLU and 2847.77 RLU and 2549.07 RLU
0.00061 (unit uncertain) compound, sheet ADP_ATP_glo081724 (3)
  raw luminescence, TbERK8: 126.666 RLU and 99.523 RLU and 185.475 RLU
0.00061 (unit uncertain) compound, sheet Kinase_glo 08142024 (2)
  raw luminescence, TbERK8: 699.567 RLU and 777.766 RLU and 826.377 RLU
0.00061 (unit uncertain) compound, sheet Kinase_glo_080924_IFPS (2)
  raw luminescence, TbERK8: 1033.1 RLU and 1001.66 RLU and 918.564 RLU
0.00244 (unit uncertain) compound, sheet ADP_ATP_glo081724 (3)
  raw luminescence, TbERK8: 151.546 RLU and 108.57 RLU and 214.879 RLU
0.00244 (unit uncertain) compound, sheet Kinase_glo 08142024 (2)
  raw luminescence, TbERK8: 716.475 RLU and 665.751 RLU and 646.73 RLU
0.00244 (unit uncertain) compound, sheet Kinase_glo_080924_IFPS (2)
  raw luminescence, TbERK8: 2143.15 RLU and 2092.68 RLU and 2029.79 RLU
0.00977 (unit uncertain) compound, sheet ADP_ATP_glo081724 (3)
  raw luminescence, TbERK8: 255.593 RLU and 147.022 RLU and 271.426 RLU
0.00977 (unit uncertain) compound, sheet Kinase_glo 08142024 (2)
  raw luminescence, TbERK8: 437.494 RLU and 490.331 RLU and 469.196 RLU
0.00977 (unit uncertain) compound, sheet Kinase_glo_080924_IFPS (2)
  raw luminescence, TbERK8: 2030.86 RLU and 2806.27 RLU and 2958.99 RLU
0.03906 (unit uncertain) compound, sheet ADP_ATP_glo081724 (3)
  raw luminescence, TbERK8: 165.118 RLU and 117.618 RLU and 199.046 RLU
0.03906 (unit uncertain) compound, sheet Kinase_glo 08142024 (2)
  raw luminescence, TbERK8: 667.865 RLU and 653.07 RLU and 765.085 RLU
0.03906 (unit uncertain) compound, sheet Kinase_glo_080924_IFPS (2)
  raw luminescence, TbERK8: 2637.83 RLU and 2496.34 RLU and 2622.11 RLU
0.15625 (unit uncertain) compound, sheet ADP_ATP_glo081724 (3)
  raw luminescence, TbERK8: 334.759 RLU and 251.069 RLU and 300.831 RLU
0.15625 (unit uncertain) compound, sheet Kinase_glo 08142024 (2)
  raw luminescence, TbERK8: 1037.73 RLU and 1041.95 RLU and 1113.81 RLU
0.15625 (unit uncertain) compound, sheet Kinase_glo_080924_IFPS (2)
  raw luminescence, TbERK8: 2180.42 RLU and 2133.34 RLU and 2264.78 RLU
0.62500 (unit uncertain) compound, sheet ADP_ATP_glo081724 (3)
  raw luminescence, TbERK8: 495.353 RLU and 366.425 RLU and 545.114 RLU
0.62500 (unit uncertain) compound, sheet Kinase_glo 08142024 (2)
  raw luminescence, TbERK8: 1265.98 RLU and 1276.55 RLU and 1342.07 RLU
0.62500 (unit uncertain) compound, sheet Kinase_glo_080924_IFPS (2)
  raw luminescence, TbERK8: 3642.09 RLU and 3777.07 RLU and 3651.3 RLU
2.50000 (unit uncertain) compound, sheet ADP_ATP_glo081724 (3)
  raw luminescence, TbERK8: 791.659 RLU and 658.208 RLU and 870.825 RLU
2.50000 (unit uncertain) compound, sheet Kinase_glo 08142024 (2)
  raw luminescence, TbERK8: 2855.33 RLU and 2339.64 RLU and 2348.09 RLU
2.50000 (unit uncertain) compound, sheet Kinase_glo_080924_IFPS (2)
  raw luminescence, TbERK8: 13901.1 RLU and 13588.9 RLU and 13357.6 RLU
10.00000 (unit uncertain) compound, sheet ADP_ATP_glo081724 (3)
  raw luminescence, TbERK8: 8500.16 RLU and 8653.97 RLU and 8624.56 RLU
10.00000 (unit uncertain) compound, sheet Kinase_glo 08142024 (2)
  raw luminescence, TbERK8: 38026 RLU and 38805.9 RLU and 42117.7 RLU
10.00000 (unit uncertain) compound, sheet Kinase_glo_080924_IFPS (2), signal = ATP left
  raw luminescence, TbERK8: 19789.8 RLU and 19980.7 RLU and 19481.5 RLU
Inhibitor 0.00976562 mM, sheet Sil_Pred3, read 3
  Luminescence Raw (Kinase-Glo): 32992.2 and 33121 and 33174.9
Inhibitor 0.0195312 mM, sheet Sil_Pred3, read 3
  Luminescence Raw (Kinase-Glo): 38593.5 and 41076.8 and 40952.6
Inhibitor 0.0390625 mM, sheet Sil_Pred3, read 3
  Luminescence Raw (Kinase-Glo): 46486.1 and 45877 and 46038.6
Inhibitor 0.078125 mM, sheet Sil_Pred3, read 3
  Luminescence Raw (Kinase-Glo): 44202 and 48636.7 and 49203.6
Inhibitor 0.15625 mM, sheet Sil_Pred3, read 3
  Luminescence Raw (Kinase-Glo): 45380.3 and 46230.7 and 46420.5
Inhibitor 0.3125 mM, sheet Sil_Pred3, read 3
  Luminescence Raw (Kinase-Glo): 39235.4 and 40486.4 and 39917.2
Inhibitor 0.625 mM, sheet Sil_Pred3, read 3
  Luminescence Raw (Kinase-Glo): 39298.7 and 39928.9 and 40873
Inhibitor 0.00976562, sheet Sil_Pred1, read 1
  Luminescence Raw (Kinase-Glo): 36007.1 and 35961.3 and 35122.3
Inhibitor 0.00976562, sheet Sil_Pred2, read 2
  Luminescence Raw (Kinase-Glo): 32848.9 and 34114.2 and 33997.9
Inhibitor 0.0195312, sheet Sil_Pred1, read 1
  Luminescence Raw (Kinase-Glo): 43841.6 and 45072.5 and 44815.8
Inhibitor 0.0195312, sheet Sil_Pred2, read 2
  Luminescence Raw (Kinase-Glo): 39947.1 and 42452 and 42749.7
Inhibitor 0.0390625, sheet Sil_Pred1, read 1
  Luminescence Raw (Kinase-Glo): 50695.1 and 50667.6 and 49805.8
Inhibitor 0.0390625, sheet Sil_Pred2, read 2
  Luminescence Raw (Kinase-Glo): 46810.4 and 47329.1 and 47238.4
Inhibitor 0.078125, sheet Sil_Pred1, read 1
  Luminescence Raw (Kinase-Glo): 49017.3 and 54222.7 and 54701.7
Inhibitor 0.078125, sheet Sil_Pred2, read 2
  Luminescence Raw (Kinase-Glo): 44868.4 and 49845.5 and 51285.2
Inhibitor 0.15625, sheet Sil_Pred1, read 1
  Luminescence Raw (Kinase-Glo): 51194.8 and 52235.4 and 51680.7
Inhibitor 0.15625, sheet Sil_Pred2, read 2
  Luminescence Raw (Kinase-Glo): 47366.3 and 47915.2 and 47922.2
Inhibitor 0.3125, sheet Sil_Pred1, read 1
  Luminescence Raw (Kinase-Glo): 44343.6 and 45716.6 and 43953.9
Inhibitor 0.3125, sheet Sil_Pred2, read 2
  Luminescence Raw (Kinase-Glo): 41235.6 and 41775.2 and 41631
Inhibitor 0.625, sheet Sil_Pred1, read 1
  Luminescence Raw (Kinase-Glo): 43960.8 and 44712.6 and 44414.7
Inhibitor 0.625, sheet Sil_Pred2, read 2
  Luminescence Raw (Kinase-Glo): 40144.8 and 41517 and 41924

— publication PMC12445744, “Molecular docking to homology models of human and Trypanosoma brucei ERK8 that identified ortholog-specific inhibitors” (PLOS Neglected Tropical Diseases, 2025)
